Where “and” joins values, the source holds several entries; their conditions need not be identical. Equal values may be shown once. Blank lines part the entries; values can stand above or below the compound they belong to.
Tested on: 128128-338-R-J1-PDC spheroids, viability % test/control
Assay: Anticancer human tumor 128128-338-R-J1-PDC patient-derived melanoma cell line growth inhibition [TAK]
Conditions: spheroids with HUVEC and MSC; for viability, T/C: stronger effect = lower value
Procedure, shortened: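 Drug combinations, each paired with TAK-243 or ipatasertib, were tested on multi-cell spheroids of 60% malignant cells, 25% HUVEC and 15% hMSC. Top concentrations were at or near the clinical Cmax (10 microM if undetermined), decreasing by half-log; viability is given as % test/control.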

[1] = curve of first compound, second compound 0.3 µM
[2] = curve of first compound, second compound 0.949 µM
[3] = curve of first compound, second compound 3 µM
[4] = curve of first compound, second compound 9.49 µM
[5] = curve of first compound, second compound 30 µM
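Note: spheroids exposed to compounds for 7 days.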
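Throughout, for viability, T/C: 100% = DMSO vehicle wells.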

Structure (SMILES): CC(C)(C)c1nc(-c2cccc(NS(=O)(=O)c3c(F)cccc3F)c2F)c(-c2ccnc(N)n2)s1 + CC(C)NCC(C(=O)N1CCN(c2ncnc3c2C(C)CC3O)CC1)c1ccc(Cl)cc1
IC50 [1]: 46 nM
IC50 [2]: 41.2 nM
IC50 [3]: < 31.6 nM
IC50 [4]: < 31.6 nM
IC50 [5]: < 31.6 nM
viability, T/C (second compound 0.3 µM, first compound 0.0316 µM): 61%
viability, T/C (second compound 0.3 µM, first compound 0.1 µM): 27.1%
viability, T/C (second compound 0.3 µM, first compound 0.316 µM): 6.08%
viability, T/C (second compound 0.3 µM, first compound 1 µM): 1.93%
viability, T/C (second compound 0.3 µM, first compound 3.16 µM): 1.83%
viability, T/C (second compound 0.3 µM, first compound 10 µM): 8.83%
viability, T/C (second compound 0.949 µM, first compound 0.0316 µM): 58.6%
viability, T/C (second compound 0.949 µM, first compound 0.1 µM): 21%
viability, T/C (second compound 0.949 µM, first compound 0.316 µM): 2.85%
viability, T/C (second compound 0.949 µM, first compound 1 µM): 1.56%
viability, T/C (second compound 0.949 µM, first compound 3.16 µM): 0.98%
viability, T/C (second compound 0.949 µM, first compound 10 µM): 2.06%
viability, T/C (second compound 3 µM, first compound 0.0316 µM): 29.6%
viability, T/C (second compound 3 µM, first compound 0.1 µM): 8.97%
viability, T/C (second compound 3 µM, first compound 0.316 µM): 1.74%
viability, T/C (second compound 3 µM, first compound 1 µM): 1.17%
viability, T/C (second compound 3 µM, first compound 3.16 µM): 0.79%
viability, T/C (second compound 3 µM, first compound 10 µM): 0.99%
viability, T/C (second compound 9.49 µM, first compound 0.0316 µM): 12.7%
viability, T/C (second compound 9.49 µM, first compound 0.1 µM): 1.27%
viability, T/C (second compound 9.49 µM, first compound 0.316 µM): 1.2%
viability, T/C (second compound 9.49 µM, first compound 1 µM): 0.7%
viability, T/C (second compound 9.49 µM, first compound 3.16 µM): 0.6%
viability, T/C (second compound 9.49 µM, first compound 10 µM): 0.64%
viability, T/C (second compound 30 µM, first compound 0.0316 µM): 0.69%
viability, T/C (second compound 30 µM, first compound 0.1 µM): 0.56%
viability, T/C (second compound 30 µM, first compound 0.316 µM): 0.78%
viability, T/C (second compound 30 µM, first compound 1 µM): 0.44%
viability, T/C (second compound 30 µM, first compound 3.16 µM): 0.34%
viability, T/C (second compound 30 µM, first compound 10 µM): 0.42%

Structure (SMILES): CC(C)CC(NC(=O)CNC(=O)c1cc(Cl)ccc1Cl)B1OC(=O)CC(CC(=O)O)(C(=O)O)O1 (stereo not drawn)
viability, T/C (compound 0.000316 µM): 102% and 104%
viability, T/C (compound 0.001 µM): 95.7% and 102%
viability, T/C (compound 0.00316 µM): 102% and 99%
viability, T/C (compound 0.01 µM): 39.4% and 38.7%
viability, T/C (compound 0.0316 µM): 3.88% and 2.92%
viability, T/C (compound 0.1 µM): 0.22% and 0.2%
IC50 (curve of compound): 8.17 nM and 8.06 nM

Structure (SMILES): Cn1cnc2c(F)c(Nc3ccc(Br)cc3Cl)c(C(=O)NOCCO)cc21 + CC(C)NCC(C(=O)N1CCN(c2ncnc3c2C(C)CC3O)CC1)c1ccc(Cl)cc1
IC50 [1]: 91.3 nM
IC50 [2]: 77.9 nM
IC50 [3]: 54.8 nM
IC50 [4]: 15.1 nM
IC50 [5]: < 9.49 nM
viability, T/C (second compound 0.3 µM, first compound 0.00949 µM): 92.9%
viability, T/C (second compound 0.3 µM, first compound 0.03 µM): 83.4%
viability, T/C (second compound 0.3 µM, first compound 0.0949 µM): 48.7%
viability, T/C (second compound 0.3 µM, first compound 0.3 µM): 13.6%
viability, T/C (second compound 0.3 µM, first compound 0.949 µM): 1.29%
viability, T/C (second compound 0.3 µM, first compound 3 µM): 1.54%
viability, T/C (second compound 0.949 µM, first compound 0.00949 µM): 85.7%
viability, T/C (second compound 0.949 µM, first compound 0.03 µM): 76.6%
viability, T/C (second compound 0.949 µM, first compound 0.0949 µM): 45%
viability, T/C (second compound 0.949 µM, first compound 0.3 µM): 3.97%
viability, T/C (second compound 0.949 µM, first compound 0.949 µM): 0.63%
viability, T/C (second compound 0.949 µM, first compound 3 µM): 0.7%
viability, T/C (second compound 3 µM, first compound 0.00949 µM): 77%
viability, T/C (second compound 3 µM, first compound 0.03 µM): 76.2%
viability, T/C (second compound 3 µM, first compound 0.0949 µM): 26.3%
viability, T/C (second compound 3 µM, first compound 0.3 µM): 1.91%
viability, T/C (second compound 3 µM, first compound 0.949 µM): 0.35%
viability, T/C (second compound 3 µM, first compound 3 µM): 0.16%
viability, T/C (second compound 9.49 µM, first compound 0.00949 µM): 63%
viability, T/C (second compound 9.49 µM, first compound 0.03 µM): 30.6%
viability, T/C (second compound 9.49 µM, first compound 0.0949 µM): 10.7%
viability, T/C (second compound 9.49 µM, first compound 0.3 µM): 0.42%
viability, T/C (second compound 9.49 µM, first compound 0.949 µM): 0.35%
viability, T/C (second compound 9.49 µM, first compound 3 µM): 0.17%
viability, T/C (second compound 30 µM, first compound 0.00949 µM): 16.7%
viability, T/C (second compound 30 µM, first compound 0.03 µM): 4.78%
viability, T/C (second compound 30 µM, first compound 0.0949 µM): 0.34%
viability, T/C (second compound 30 µM, first compound 0.3 µM): 0.25%
viability, T/C (second compound 30 µM, first compound 0.949 µM): 0.15%
viability, T/C (second compound 30 µM, first compound 3 µM): 0.13%

Now from value to compound, other results behind:

IC50 (curve of compound): 1.88 nM and 1.73 nM
Structure (SMILES): CC(C)CC(NC(=O)C(Cc1ccccc1)NC(=O)c1cnccn1)B(O)O (stereo not drawn)
viability, T/C (compound 31.6 pM): 107% and 105%
viability, T/C (compound 0.0001 µM): 108% and 96.7%
viability, T/C (compound 0.000316 µM): 99.3% and 93%
viability, T/C (compound 0.001 µM): 102% and 90.6%
viability, T/C (compound 0.00316 µM): 6.95% and 5.71%
viability, T/C (compound 0.01 µM): 0.2% and 0.52%

IC50 (curve of compound): 16.9 nM and 15.7 nM
Structure (SMILES): CC(C)n1nc(-c2ccc3oc(N)nc3c2)c2c(N)ncnc21
viability, T/C (compound 0.000316 µM): 99.1% and 106%
viability, T/C (compound 0.001 µM): 94.7% and 96.1%
viability, T/C (compound 0.00316 µM): 83.2% and 80.7%
viability, T/C (compound 0.01 µM): 67.3% and 64.7%
viability, T/C (compound 0.0316 µM): 31.2% and 30.5%
viability, T/C (compound 0.1 µM): 6.18% and 6.1%

IC50 (curve of compound): > 10000 nM
Structure (SMILES): Cc1nc(NC(=O)N2CCCC2C(N)=O)sc1-c1ccnc(C(C)(C)C(F)(F)F)c1 (stereo not drawn)
viability, T/C (compound 0.0316 µM): 96.8% and 97.9%
viability, T/C (compound 0.1 µM): 98% and 97.4%
viability, T/C (compound 0.316 µM): 96% and 95.9%
viability, T/C (compound 1 µM): 96.9% and 92.3%
viability, T/C (compound 3.16 µM): 90.8% and 88.5%
viability, T/C (compound 10 µM): 81.5% and 71.4%

Reference: PubChem BioAssay AID2060362 (Molecular Pharmacology Branch, DTP, NCI, 2025)
